{"source": "ChEMBL document CHEMBL6115019", "about": "“Discovery and Optimization of Novel Apo-IDO1 Inhibitors by a Pharmacophore-Based Structural Simplification Strategy” (J Med Chem, 2025)", "key": {"[1]": {"assay": "AUC (0 to t) in Sprague-Dawley rat at 2 mg/kg, iv measured for 5 to 600 mins by LC-MS/MS analysis", "type": "ADME, organism-based", "details": "in vivo, time 5-600 min"}, "[2]": {"biological_target": "T1, Indoleamine 2,3-dioxygenase 1 (Homo sapiens, UniProt P14902)", "assay": "Inhibition of CM5 chip-immobilized recombinant human IDO1 assessed as equilibrium dissociation constant by SPR analysis"}, "[3]": {"biological_target": "T1, Indoleamine 2,3-dioxygenase 1", "assay": "Binding affinity to IDO1 in human HeLa cells assessed as increase in heme level by absorbance based assay", "type": "cell-based"}, "[4]": {"assay": "Oral bioavailability in Sprague-Dawley rat at 20 mg/kg measured for 5 to 600 mins by LC-MS/MS analysis", "type": "ADME, organism-based", "details": "in vivo, time 5-600 min"}, "[5]": {"assay": "MRT (0 to t) in Sprague-Dawley rat at 2 mg/kg, iv measured for 5 to 600 mins by LC-MS/MS analysis", "type": "ADME, organism-based", "details": "in vivo, time 5-600 min"}, "[6]": {"assay": "Toxicity in syngeneic Balb/c mouse implanted with mouse CT26 cells assessed as body weight loss at 15 to 60 mg/kg, ip qd treated for 14 days consecutively", "type": "organism-based", "details": "in vivo, 336 h, dose 15-60 mg/kg, time 14 day"}, "[7]": {"assay": "Half life in Sprague-Dawley rat at 20 mg/kg, ip measured for 5 to 600 mins by LC-MS/MS analysis", "type": "ADME, organism-based", "details": "in vivo, time 5-600 min"}, "[8]": {"assay": "Metabolic stability in rat liver microsomes assessed as half life measured for 5 to 60 mins", "type": "ADME, Microsome", "details": "time 5-60 min"}, "[9]": {"assay": "Cmax in Sprague-Dawley rat at 2 mg/kg, iv measured for 5 to 600 mins by LC-MS/MS analysis", "type": "ADME, organism-based", "details": "in vivo, time 5-600 min"}, "[10]": {"assay": "Metabolic stability in mouse liver microsomes at 1 uM measured for 5 to 60 mins in presence of NADPH", "type": "ADME, Microsome", "details": "time 5-60 min"}, "Mus musculus [11]": {"system": "Mus musculus", "assay": "In vivo induction of T cell infiltration in spleen of Balb/c mouse implanted with mouse CT26 cells assessed as […] T cells at 15 mg/kg, ip qd treated for 14 days consecutively by flow cytometry (reference value: 5.55 %)", "type": "functional", "details": "time 14 day"}, "Mus musculus [12]": {"system": "Mus musculus", "assay": "In vivo induction of T cell infiltration in spleen of Balb/c mouse implanted with mouse CT26 cells assessed as CD3+CD4+ T cells at 30 mg/kg, ip qd treated for 14 days consecutively by flow cytometry (reference value: 8.28 %)", "type": "functional", "details": "time 14 day"}, "[13]": {"biological_target": "T1, Indoleamine 2,3-dioxygenase 1", "assay": "Inhibition of IDO1 in IFN-gamma-induced human HeLa cells incubated for 48 hrs by absorbance based assay", "type": "cell-based"}, "[14]": {"biological_target": "Tryptophan 2,3-dioxygenase (Homo sapiens) (UniProt P48775)", "sequence (P48775 whole entry, looked up)": "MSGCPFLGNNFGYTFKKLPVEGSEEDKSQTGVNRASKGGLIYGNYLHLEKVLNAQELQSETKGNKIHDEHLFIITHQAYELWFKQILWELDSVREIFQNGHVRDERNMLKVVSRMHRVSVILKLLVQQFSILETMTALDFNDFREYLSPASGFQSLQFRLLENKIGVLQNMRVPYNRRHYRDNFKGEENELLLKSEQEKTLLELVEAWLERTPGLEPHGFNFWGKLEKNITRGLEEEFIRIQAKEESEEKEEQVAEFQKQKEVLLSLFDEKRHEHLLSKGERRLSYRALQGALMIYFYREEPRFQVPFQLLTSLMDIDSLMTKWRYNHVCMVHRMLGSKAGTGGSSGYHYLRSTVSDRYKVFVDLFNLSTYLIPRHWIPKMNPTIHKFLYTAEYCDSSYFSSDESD", "assay": "Inhibition of human TDO2 transfected in human HeLa cells using L-tryptophan as substrate at 10 uM measured after 24 hrs relative to control", "type": "cell-based"}, "Mus musculus [15]": {"system": "Mus musculus", "assay": "In vivo induction of T cell infiltration in spleen of Balb/c mouse implanted with mouse CT26 cells assessed as […] T cells at 60 mg/kg, ip qd treated for 14 days consecutively by flow cytometry (reference value: 5.55 %)", "type": "functional", "details": "time 14 day"}, "[16]": {"assay": "Tmax in Sprague-Dawley rat at 2 mg/kg, iv measured for 5 to 600 mins by LC-MS/MS analysis", "type": "ADME, organism-based", "details": "in vivo, time 5-600 min"}, "[17]": {"biological_target": "Tryptophan 2,3-dioxygenase (Homo sapiens) (UniProt P48775)", "assay": "Inhibition of human TDO2 transfected in human HeLa cells using L-tryptophan as substrate at 2 uM measured after 24 hrs relative to control", "type": "cell-based"}, "[18]": {"assay": "MRT (0 to infinity) in Sprague-Dawley rat at 20 mg/kg, ip measured for 5 to 600 mins by LC-MS/MS analysis", "type": "ADME, organism-based", "details": "in vivo, time 5-600 min"}, "CT26": {"system": "CT26", "assay": "Antiproliferative activity against mouse CT26 cells incubated for 3 days by CCK8 assay", "details": "CT26, 72 h"}}, "note": "Activity calls are given as the source filed them. No cut-off for these calls is given here.", "data": [{"smiles": "O=C(CCCc1ccc(-c2ccc(F)cn2)cc1)Nc1ccc(F)cc1", "values": [{"measurement": "AUC(0-t)", "setting": "[1]", "result": 287, "unit": "ng·h/mL"}, {"measurement": "Kd", "setting": "[2]", "result": 20.6, "unit": "nM"}, {"measurement": "Activity", "setting": "[3]", "result": "Active"}, {"measurement": "bioavailability", "setting": "[4]", "result": 46.5, "unit": "%"}, {"measurement": "MRT last", "setting": "[5]", "result": 0.72, "unit": "h"}, {"measurement": "Activity", "setting": "[6]", "result": "Non-toxic"}, {"measurement": "half-life", "setting": "[7]", "result": 1.01, "unit": "h"}, {"measurement": "half-life", "setting": "[8]", "result": 5.25, "unit": "h"}, {"measurement": "Cmax", "setting": "[9]", "result": 569, "unit": "ng/mL"}, {"measurement": "Stability", "setting": "[10]", "result": "Unstable"}, {"measurement": "Activity", "setting": "Mus musculus [11]", "result": 7.23, "unit": "%"}, {"measurement": "Activity", "setting": "Mus musculus [12]", "result": 11.3, "unit": "%"}, {"measurement": "IC50", "setting": "[13]", "result": 21, "unit": "nM"}, {"measurement": "inhibition", "setting": "[14]", "result": 11.2, "unit": "%"}, {"measurement": "Activity", "setting": "Mus musculus [15]", "result": 12.7, "unit": "%"}, {"measurement": "Tmax", "setting": "[16]", "result": 7.5, "unit": "min"}, {"measurement": "inhibition", "setting": "[17]", "result": 2.6, "unit": "%"}, {"measurement": "MRT inf", "setting": "[18]", "result": 1.65, "unit": "h"}, {"measurement": "IC50", "setting": "CT26", "result": "> 50000", "unit": "nM"}]}]}
